Assay results reported in patent publication US10947511B2, “Differentiation of human embryonic stem cells into pancreatic endocrine cells using thyroid hormone and/or alk5, an inhibitor of tgf-beta type 1 receptor” (Janssen Biotech, Inc., priority 2012, dated 2021).
Entries after “also recorded” stand apart in the source; their conditions may differ.

Columns and labels:
[1] = in the blood; cited from earlier work
[2] = T3 vs T4; cited from earlier work
[3] = tested on: human embryonic stem cell line H1; assay: Real-time PCR of marker genes in H1 cells differentiated as in Example 2, T3 added at Stages 4 through 6; format: cell-based
Description: (§1) All primers were purchased from Applied Biosystems.
(§2) Cultures were differentiated into cells expressing markers characteristic of pancreatic endoderm/endocrine precursor cells by the protocol outlined below. • a. […] SD208 is 2-(5-Chloro-2-fluorophenyl)pteridin-4-yl]pyridin-4-yl-amine) having the structure of formula I, and disclosed in Molecular Pharmacology 2007, 72:152-161. SD208 is a 2,4-disubstituted pteridine, ATP-competitive inhibitor of the TGF-βR I kinase.
(§3) In some cultures, 1 μM T3 (T6397, Sigma, MO) was added at Stages 4 through 6. At the end of Stages 4 through 6, the control and treated cultures were analyzed by FACS and immunostaining. Furthermore, mRNA was collected for the control and treated cultures at Stages 2 through 6.

[4] = tested on: human embryonic stem cell line H1; assay: Immunostaining for HB9 and NKX6.1 at Stage 6, control vs T3 treated cultures (Example 2); format: cell-based
Description: as §1, §2, §3

[5] = tested on: human embryonic stem cell line H1; assay: Immunostaining for NKX6.1 and HB9 at Stage 6 day 6, T3 dose response (Example 4); format: cell-based; conditions: 0-1000 nM T3 at Stages 5 and 6, dose dependent
Excerpt: as §1
Forty-eight hours post-seeding, cultures were washed in incomplete PBS (phosphate buffered saline without Mg or Ca). Cultures were differentiated into cells expressing markers characteristic of pancreatic endoderm/endocrine precursor cells by the protocol outlined below. • a.

[6] = 1 μM T3 added at Stages 4 through 6, real-time PCR
[7] = 1 μM T3 added at Stages 4 through 6, real-time PCR vs control
[8] = 1 μM T3 addition, real-time PCR

Row | Compound | half-life relative to T3 [1] | potency relative to T4 [2] | insulin expression ([3]; 1 μM T3 added at Stages 4 through 6, at Stage 5, real-time PCR) | NKX2.2 expression [3, 6] | NKX6.1 expression [3, 6] | PDX1 expression [3, 6] | ghrelin expression [3, 7] | glucagon expression [3, 7] | somatostatin expression [3, 7] | CDX2 (intestine marker) expression [3, 8] | SOX2 (stomach marker) expression [3, 8] | albumin (liver marker) expression [3, 8] | number of HB9 positive cells ([4]; Stage 6, T3 treated group vs control) | number of NKX6.1 positive cells showing expression of HB9 ([4]; T3 treated cultures) | number of HB9 positive cells in the NKX6.1 positive pancreatic endoderm precursor cells [5]
1 | N[C@@H](Cc1cc(I)c(Oc2cc(I)c(O)c(I)c2)c(I)c1)C(=O)O [T4, thyroxine] | longer half-life than T3 | – | – | – | – | – | – | – | – | – | – | – | – | – | –
2 | N[C@@H](Cc1cc(I)c(Oc2ccc(O)c(I)c2)c(I)c1)C(=O)O [T3, triiodothyronine] | – | three to four times more potent than T4 | moderately increasing | significantly decreased | apparently not affecting | apparently not affecting | significantly down regulated | significantly down regulated | significantly down regulated | not affecting | suppressed | suppressed | increases; also recorded: significant increase | increased number | significantly enhanced
